EP0353668A2, “Process for the preparation of N,N-bis(alkoxyalkyl) diamides of pyridine-2,4-dicarboxylic acid” (HOECHST AKTIENGESELLSCHAFT, priority 1988, dated 1990)

Assay: in vivo
Parameters: species or system Wistarratten
Description: Es wurde festgestellt, daß die Verbindungen der Formel I außergewöhnlich gute enterale Resorbierbarkeiten aufweisen. Die Resorbierbarkeit wurde an Wistarratten untersucht, denen N,N′-Bis-(2-methoxy ethyl)pyridin-2,4-dicarbonsäureamid intragastral verabreicht wurde. Der Serumspiegel sank in den ersten Stunden nach Verabreichung der Substanz ab und ereichte nach ca. 5 Stunden ein nur noch leicht abfallendes Platteau.
Weibliche Wistarratten von ca. 150 g Körpergewicht erhalten 50 mg/kg N,N′-Bis(2-methoxyethyl)pyridin-2,4-dicarbonsäurediamid mittels Schlundsonde intragastral verabreicht. Es werden nach 0; 0,25; 0,5; 1; 3; 4; 5; 6; 8 und 14 Stunden jeweils 4 Ratten narkotisiert und über die Vena Cava entblutet. Das Blut wird sofort zentrifugiert und N,N′-Bis(2-methoxyethyl)pyridin-2,4-dicarbonsäurediamid mit Ether aus dem Serum extrahiert. Nach Verdampfen des Ethers wird der Rückstand in […] Fliessmittel aufgenommen. Das Fliessmittel besteht aus 0,05 M Phosphorsäure und Acetonitril (4:1). Von dieser Probe werden 50 µl in eine HPLC-Säule injiziert. Die Detektion erfolgt bei UV 200 nm und einer Retentionszeit von 2,2 min. Die Ergebnisse sind in der Tabelle 1 und der Figur 1 dokumentiert. Tabelle 1

Zeit bis der Serumspiegel ein nur noch leicht abfallendes Platteau erreichte: ca. 5 Stunden
enterale Resorbierbarkeit: gute Resorbierbarkeit
concentration at 0.25 h (rat, po, 50 mg/kg): 38700 ng/mL
concentration at 0.5 h (rat, po, 50 mg/kg): 32400 ng/mL
concentration at 1 h (rat, po, 50 mg/kg): 15600 ng/mL
concentration at 3 h (rat, po, 50 mg/kg): 700 ng/mL
concentration at 4 h (rat, po, 50 mg/kg): 3300 ng/mL
concentration at 5 h (rat, po, 50 mg/kg): 500 ng/mL
concentration at 6 h (rat, po, 50 mg/kg): 600 ng/mL
concentration at 8 h (rat, po, 50 mg/kg): 500 ng/mL
concentration at 14 h (rat, po, 50 mg/kg): 300 ng/mL
Compound: COCCNC(=O)c1ccnc(C(=O)NCCOC)c1 [N,N′-Bis(2-methoxyethyl)pyridin-2,4-dicarbonsäurediamid]
